Marks after values point to notes of the source that are not given here.
Assays:
[1] = tested on: LPS-treated 3T3-L1 adipocytes; assay: Adiponectin secretion in LPS/3T3-L1 adipocytes; type: cell-based, murine; conditions: for adiponectin secretion: any dose tested; for % Stimulation of adiponectin secretion (maximum): at the concentration of maximum stimulation, NS = not significantly different from the LPS control
3T3-L1 adipocytes = assay: Lipogenesis in 3T3-L1 adipocytes (Oil Red O / BODIPY); type: cell-based, murine; conditions: relative to controls
Description: Prior to experiments, cells were cultured in DMEM containing 10% FBS-HI added 50 units penicillin/ml and 50 μg streptomycin/ml, and maintained in log phase prior to experimental setup. Cells were grown in a 5% CO2 humidified incubator at 37° C. Components of the pre-confluent medium included (1) 10% FBS/DMEM containing 4.5 g glucose/L; (2) 50 U/ml penicillin; and (3) 50 μg/ml streptomycin. Growth medium was made by adding 50 ml of heat inactivated FBS and 5 ml of penicillin/streptomycin to 500 ml DMEM. This medium was stored at 4° C. Before use, the medium was warmed to 37° C. in a water bath.
3T3-T1 cells were seeded at an initial density of 6×10^4 cells/cm^2 in 24-well plates. For two days, the cells were allowed grow to reach confluence. Following confluence, the cells were forced to differentiate into adipocytes by the addition of differentiation medium; this medium consisted of (1) 10% FBS/DMEM (high glucose); (2) 0.5 mM methylisobutylxanthine; (3) 0.5 μM dexamethasone and (4) 10 μg/ml insulin (MDI medium). After three days, the medium was changed to post-differentiation medium consisting of 10 μg/ml insulin in 10% FBS/DMEM.
AcE was partially dissolved in dimethyl sulfoxide (DMSO) and added to the culture medium to achieve a concentration of 50 μg/ml at Day 0 of differentiation and throughout the maturation phase (Days 6 or 7 (D6/7)). Whenever fresh media were added, fresh test material was also added. DMSO was chosen for its polarity and the fact that it is miscible with the aqueous cell culture media.
Oil Red O Staining—Triglyceride content of D6/D7-differentiated 3T3-L1 cells was estimated with Oil Red O according to the method of Kasturi and Joshi [Kasturi, R. and Joshi, V. C. […] Monolayer cells were washed with PBS (phosphate buffered saline, Mediatech) and fixed with 10% formaldehyde for ten minutes. Fixed cells were stained with an Oil Red O working solution of three parts 0.6% Oil Red O/isopropanol stock solution and two parts water for one hour and the excess stain was washed once with water. The resulting stained oil droplets were extracted from the cells with isopropanol and quantified by spectrophotometric analysis at 540 nm (MEL312e BIO-KINETICS READER, Bio-Tek Instruments, Winooski, Vt.).
Briefly, media were removed and cells were washed once with non-sterile PBS. A stock 1000× BODIPY/DMSO solution was made by dissolving 1 mg BODIPY in 1 ml DMSO (1,000 μg BODIPY/ml). […] After 15 min on an orbital shaker (DS-500, VWR Scientific Products, South Plainfield, N.J.) at ambient temperature, the cells were washed with 100 μl PBS followed by the addition of 100 μl PBS for reading for spectrofluorometric determination of BODIPY incorporation into the cells. […]

[2] = tested on: insulin-resistant 3T3-L1 adipocytes; assay: Adiponectin secretion from insulin-resistant 3T3-L1 adipocytes; type: cell-based, murine; conditions: 50.0 μg/ml; ratio of Adiponectin Index to IL-6 Index (Table 21)
[3] = tested on: LPS-stimulated 3T3-L1 adipocytes; assay: IL-6 secretion in LPS/3T3-L1 adipocytes; type: cell-based, murine; conditions: at the concentration of maximum inhibition, 100 ng LPS/ml, D5 3T3-L1; for IL-6 Index: indexed to LPS control
[4] = tested on: TNFα-treated 3T3-L1 adipocytes; assay: Adiponectin secretion from TNFα-treated 3T3-L1 adipocytes; type: cell-based, murine; conditions: 10 ng TNFα/ml
Description: For two days, the cells were allowed grow to reach confluence. […] (3) 0.5 μM dexamethasone and (4) 10 μg/ml insulin (MDI medium). […] Adiponectin Assay—The adiponectin secreted into the medium was quantified using the Mouse Adiponectin Quantikine® Immunoassay kit with no modifications (R&D Systems, Minneapolis, Minn.). […] Statistical Calculations and Interpretation—All assays were preformed in duplicate. […] Differences among the doses and test agents were determined using the Student's t-test without correction for multiple comparisons; the nominal five percent probability of a type I error was selected.

db/db mice = assay: Non-fasting serum glucose and insulin in db/db diabetic mice; type: in vivo, mouse; conditions: three daily doses
Description: The Model—Male, C57BLKS/J m^+/m^+Lepr^db (db/db) mice were used to assess the potential of the test materials to reduce fasting serum glucose or insulin concentrations. This strain of mice is resistant to leptin by virtue of the absence of a functioning leptin receptor.
Testing Procedure—Test substances were administered daily by gavage in 0.2% Tween-80. Serum was collected from the retroorbital sinus before the initial dose and ninety minutes after the third and final dose. Non-fasting serum glucose was determined enzymatically by the mutarotase/glucose oxidase method and serum insulin was determined by a mouse specific ELISA.
The Model—Male, C57BLKS/J m+/m+Leprdb (db/db) mice were used to assess the potential of the test materials to reduce fasting serum glucose or insulin concentrations. This strain of mice is resistant to leptin by virtue of the absence of a functioning leptin receptor.
Testing Procedure—Test substances were administered daily by gavage in 0.2% Tween-80. […] Non-fasting serum glucose was determined enzymatically by the mutarotase/glucose oxidase method and serum insulin was determined by a mouse specific ELISA.

DBA/J mice = assay: Collagen induced rheumatoid arthritis murine model (arthritic index, histology, serum IL-6); type: in vivo, mouse; conditions: 10 mg/kg
[5] = tested on: insulin-resistant 3T3-L1 adipocytes; assay: IL-6 secretion from insulin-resistant 3T3-L1 adipocytes; type: cell-based, murine
Description: Statistical Calculations and Interpretation—All assays were preformed in duplicate. For statistical analysis, the effect of hops derivatives on adiponectin or IL-6 secretion was computed relative to the solvent control. Differences among the doses were determined using analysis of variance without correction for multiple comparisons; the nominal five percent probability of a type I error was selected.

[6] = tested on: A549 pulmonary epithelial cells; assay: PGE2 biosynthesis in A549 cells stimulated by mite dust allergen; type: cell-based, human; conditions: 10 μg/ml
Description: The filtrate was termed mite dust allergen and used to test for induction of PGE2 biosynthesis in A549 pulmonary epithelial cells.
Mite allergen was added to the culture medium to achieve a final concentration of 1000 ng/ml. Eighteen hours later, the media were sampled for PGE2 determination.

CC(=O)Oc1ccccc1C(=O)O [Aspirin]
adiponectin secretion ([1]; LPS 100 ng/ml): failed to induce adiponectin secretion

CC(C)CCC1=C(O)C(C(=O)C(C)C)=C(O)C(CCC(C)C)(CCC(C)C)C1=O [Hexahydro colupulone]
lipogenic/adipogenic response (3T3-L1 adipocytes): failed to elicit a lipogenic response

CC(C)CCC1=C(O)C(C(=O)C(C)C)=C(O)C(CCC(C)C)(CCC(C)C)C1=O [Hexahydrocolupulone (HHCL)]
Adiponectin/IL-6 [2]: 0.60#

COc1ccc2c(c1)c(CC(=O)O)c(C)n2C(=O)c1ccc(Cl)cc1 [Indomethacin]
lipogenic/adipogenic response (3T3-L1 adipocytes): induced lipogenesis to a similar extent
% Inhibition of IL-6 secretion (maximum) [3]: 53* %
stimulation of adiponectin secretion ([1]; LPS 100 ng/ml, […]): 9%
% Stimulation of adiponectin secretion (maximum) [1]: 9%

CCc1ccc(CCOc2ccc(CC3SC(=O)NC3=O)cc2)nc1 (stereo not shown) [Pioglitazone]
maximum increase of adiponectin secretion over TNFα control [4]: 80%
Adiponectin Index (maximum) ([4]; Test/TNFα control): 1.47
IL-6 Index [3]: 0.37*
% Stimulation of adiponectin secretion (maximum) [1]: 12%

Cc1c(C)c2c(c(C)c1O)CCC(C)(COc1ccc(CC3SC(=O)NC3=O)cc1)O2 (stereo not shown) [Troglitazone]
maximum increase of adiponectin secretion over TNFα control [4]: 51%
% Stimulation of adiponectin secretion (maximum) [1]: 15%

CN(C)C(=N)N=C(N)N [metformin]
serum glucose relative to the controls (db/db mice): decreased
serum insulin relative to the controls (db/db mice): decreased

C[C@]12C=CC(=O)C=C1CC[C@@H]1[C@@H]2[C@@H](O)C[C@@]2(C)[C@H]1CC[C@]2(O)C(=O)CO [prednisolone]
reduction of serum IL-6 levels (DBA/J mice): reached a statistical significance

O=C(O)c1ccccc1O [salicylic acid]
IL-6 Index [3]: 0.52*
adiponectin secretion ([1]; LPS 100 ng/ml): failed to induce adiponectin secretion

COc1cc(O)c(CC=C(C)C)c(O)c1C(=O)/C=C/c1ccc(O)cc1 [xanthohumol]
lipogenic/adipogenic response (3T3-L1 adipocytes): comparable to indomethacin and troglitazone
IL-6 secretion [5]: Significant decreases in IL-6 secretion

Beta acids
Percent PGE2 Inhibition [6]: 83%
lipogenic/adipogenic response (3T3-L1 adipocytes): comparable to indomethacin and troglitazone

From patent publication US20080033056A1 (Metaproteomics, LLC, priority 2006, published 2008)
